Active and inactive are the calls of the source. How the calls were made is not given here.
System: CCRIS mutagenicity, Ames/micronucleus/aberration tests
Assay: CCRIS mutagenicity studies
[1] = Test System: AMES SALMONELLA TYPHIMURIUM, Strain/Indicator: TA98, Metabolic Activation: NONE, Method: PREINCUBATION
[2] = Test System: AMES SALMONELLA TYPHIMURIUM, Strain/Indicator: TA98, Metabolic Activation: NONE, Method: STANDARD PLATE
[3] = Test System: AMES SALMONELLA TYPHIMURIUM, Strain/Indicator: TA98, Metabolic Activation: RAT, LIVER, S-9, AROCLOR 1254, Method: PREINCUBATION
[4] = Test System: AMES SALMONELLA TYPHIMURIUM, Strain/Indicator: TA98, Metabolic Activation: S-9, Method: STANDARD PLATE
[5] = Test System: AMES SALMONELLA TYPHIMURIUM, Strain/Indicator: TA100, Metabolic Activation: NONE, Method: PREINCUBATION
[6] = Test System: AMES SALMONELLA TYPHIMURIUM, Strain/Indicator: TA100, Metabolic Activation: NONE, Method: STANDARD PLATE
[7] = Test System: AMES SALMONELLA TYPHIMURIUM, Strain/Indicator: TA100, Metabolic Activation: S-9, Method: STANDARD PLATE
[8] = Test System: AMES SALMONELLA TYPHIMURIUM, Strain/Indicator: TA102, Metabolic Activation: NONE, Method: PREINCUBATION
[9] = Test System: AMES SALMONELLA TYPHIMURIUM, Strain/Indicator: TA102, Metabolic Activation: RAT, LIVER, S-9, AROCLOR 1254, Method: PREINCUBATION
[10] = Test System: AMES SALMONELLA TYPHIMURIUM, Strain/Indicator: TA1535, Metabolic Activation: NONE, Method: STANDARD PLATE
[11] = Test System: AMES SALMONELLA TYPHIMURIUM, Strain/Indicator: TA1537, Metabolic Activation: NONE, Method: STANDARD PLATE
[12] = Test System: AMES SALMONELLA TYPHIMURIUM, Strain/Indicator: TA102, Metabolic Activation: NONE, Method: STANDARD PLATE
[13] = Test System: AMES SALMONELLA TYPHIMURIUM, Strain/Indicator: TA1535, Metabolic Activation: NONE, Method: PREINCUBATION
[14] = Test System: AMES SALMONELLA TYPHIMURIUM, Strain/Indicator: TA2638, Metabolic Activation: NONE, Method: STANDARD PLATE
[15] = Test System: E. COLI, Strain/Indicator: WP2 (PKM101), Metabolic Activation: NONE, Method: STANDARD PLATE
[16] = Test System: E. COLI, Strain/Indicator: WP2 UVRA (PKM101), Metabolic Activation: NONE, Method: STANDARD PLATE

| Compound | mutagenic call [1] | mutagenic call [2] | mutagenic call [3] | mutagenic call [4] | mutagenic call [5] | mutagenic call [6] | mutagenic call [7] | mutagenic call [8] | mutagenic call [9] | mutagenic call [10] | mutagenic call [11] | mutagenic call [12] | mutagenic call [13] | mutagenic call [14] | mutagenic call [15] | mutagenic call [16] | also measured |
| --- | --- | --- | --- | --- | --- | --- | --- | --- | --- | --- | --- | --- | --- | --- | --- | --- | --- |
| Cc1ccc(C=O)o1 | inactive; negative | inactive; negative | inactive; negative | inactive; negative | inactive; negative | inactive; negative | inactive; negative | inactive; negative | inactive; negative |  |  |  |  |  |  |  | mutagenic call (Test System: AMES SALMONELLA TYPHIMURIUM, Strain/Indicator: TA100, Metabolic Activation: RAT, LIVER, S-9, AROCLOR 1254, Method: PREINCUBATION): inactive; negative |
| CC1=C(C(=O)OC(C)C)C(c2cccc([N+](=O)[O-])c2)C(C(=O)OC2CN(C(c3ccccc3)c3ccccc3)C2)=C(N)N1 (stereo not drawn) |  | inactive; negative |  |  |  | inactive; negative |  |  |  | inactive; negative | inactive; negative |  |  |  |  |  | mutagenic call (Test System: AMES SALMONELLA TYPHIMURIUM, Strain/Indicator: TA98, Metabolic Activation: RAT LIVER S-9, Method: STANDARD PLATE): inactive; negative; mutagenic call (Test System: AMES SALMONELLA TYPHIMURIUM, Strain/Indicator: TA100, Metabolic Activation: RAT LIVER S-9, Method: STANDARD PLATE): inactive; negative; mutagenic call (Test System: AMES SALMONELLA TYPHIMURIUM, Strain/Indicator: TA1535, Metabolic Activation: RAT LIVER S-9, Method: STANDARD PLATE): inactive; negative; mutagenic call (Test System: AMES SALMONELLA TYPHIMURIUM, Strain/Indicator: TA1537, Metabolic Activation: RAT LIVER S-9, Method: STANDARD PLATE): inactive; negative; mutagenic call (Test System: E.COLI, Strain/Indicator: WP2 UVRA, Metabolic Activation: NONE, Method: STANDARD PLATE): inactive; negative; mutagenic call (Test System: E.COLI, Strain/Indicator: WP2 UVRA, Metabolic Activation: RAT LIVER S-9, Method: STANDARD PLATE): inactive; negative |
| O=[N+]([O-])c1cccc2csnc12 |  | active; positive |  |  |  | active; positive | active; positive |  |  | active; positive | active; positive |  |  |  |  |  | mutagenic call (Test System: AMES SALMONELLA TYPHIMURIUM, Strain/Indicator: TA1535, Metabolic Activation: S-9, Method: STANDARD PLATE): inactive; negative; mutagenic call (Test System: AMES SALMONELLA TYPHIMURIUM, Strain/Indicator: TA1537, Metabolic Activation: S-9, Method: STANDARD PLATE): inactive; negative |
| CC(=O)CC(=O)Nc1ccc(C)cc1 | inactive; negative |  |  |  | inactive; negative |  |  | inactive; negative |  |  |  | inactive; negative | inactive; negative | inactive; negative | inactive; negative | inactive; negative | mutagenic call (Test System: AMES SALMONELLA TYPHIMURIUM, Strain/Indicator: TA98, Metabolic Activation: RAT, LIVER, S-9, PHENOBARBITAL AND BETA-NAPHTHOFLAVONE, Method: PREINCUBATION): inactive; negative; mutagenic call (Test System: AMES SALMONELLA TYPHIMURIUM, Strain/Indicator: TA100, Metabolic Activation: RAT, LIVER, S-9, PHENOBARBITAL AND BETA-NAPHTHOFLAVONE, Method: PREINCUBATION): inactive; negative; mutagenic call (Test System: AMES SALMONELLA TYPHIMURIUM, Strain/Indicator: TA102, Metabolic Activation: RAT, LIVER, S-9, PHENOBARBITAL AND BETA-NAPHTHOFLAVONE, Method: PREINCUBATION): inactive; negative; mutagenic call (Test System: AMES SALMONELLA TYPHIMURIUM, Strain/Indicator: TA104, Metabolic Activation: NONE, Method: PREINCUBATION): inactive; negative; mutagenic call (Test System: AMES SALMONELLA TYPHIMURIUM, Strain/Indicator: TA104, Metabolic Activation: RAT, LIVER, S-9, PHENOBARBITAL AND BETA-NAPHTHOFLAVONE, Method: PREINCUBATION): inactive; negative; mutagenic call (Test System: AMES SALMONELLA TYPHIMURIUM, Strain/Indicator: TA1535, Metabolic Activation: RAT, LIVER, S-9, PHENOBARBITAL AND BETA-NAPHTHOFLAVONE, Method: PREINCUBATION): inactive; negative; mutagenic call (Test System: AMES SALMONELLA TYPHIMURIUM, Strain/Indicator: TA1537, Metabolic Activation: NONE, Method: PREINCUBATION): inactive; negative; mutagenic call (Test System: AMES SALMONELLA TYPHIMURIUM, Strain/Indicator: TA1537, Metabolic Activation: RAT, LIVER, S-9, PHENOBARBITAL AND BETA-NAPHTHOFLAVONE, Method: PREINCUBATION): inactive; negative; mutagenic call (Test System: E. COLI, Strain/Indicator: WP2UVRA/PKM101, Metabolic Activation: NONE, Method: PREINCUBATION): active; positive; mutagenic call (Test System: E. COLI, Strain/Indicator: WP2UVRA, Metabolic Activation: NONE, Method: PREINCUBATION): inactive; negative; mutagenic call (Test System: E. COLI, Strain/Indicator: WP2UVRA, Metabolic Activation: RAT, LIVER, S-9, PHENOBARBITAL AND BETA-NAPHTHOFLAVONE, Method: PREINCUBATION): inactive; negative |
| Oc1cccc(O)c1O | inactive; negative | inactive; negative | inactive; negative | active; positive | active; positive | inactive; negative | active; positive |  | inactive; negative |  |  | active; positive | inactive; negative | active; positive | active; positive | active; positive | mutagenic call (End Point: IN VITRO CHROMOSOMAL ABERRATIONS, Test System: V79 CELLS, Metabolic Activation: NONE): active; positive; active at higher levels at all ph values; mutagenic call (Test System: AMES SALMONELLA TYPHIMURIUM, Strain/Indicator: TA97, Metabolic Activation: NONE, Method: PREINCUBATION): active; positive; mutagenic call (Test System: AMES SALMONELLA TYPHIMURIUM, Strain/Indicator: TA97, Metabolic Activation: RAT, LIVER, S-9, PHENOBARBITAL, Method: PREINCUBATION): active; positive; mutagenic call (Test System: AMES SALMONELLA TYPHIMURIUM, Strain/Indicator: TA98, Metabolic Activation: NONE): inactive; negative; mutagenic call (Test System: AMES SALMONELLA TYPHIMURIUM, Strain/Indicator: TA98, Metabolic Activation: RAT, LIVER, S-9, PHENOBARBITAL, Method: PREINCUBATION): active; positive; mutagenic call (Test System: AMES SALMONELLA TYPHIMURIUM, Strain/Indicator: TA98, Metabolic Activation: S-9): inactive; negative; mutagenic call (Test System: AMES SALMONELLA TYPHIMURIUM, Strain/Indicator: TA100, Metabolic Activation: RAT, LIVER, S-9, PHENOBARBITAL, Method: PREINCUBATION): active; positive; mutagenic call (Test System: AMES SALMONELLA TYPHIMURIUM, Strain/Indicator: TA1535, Metabolic Activation: RAT, LIVER, S-9, AROCLOR 1254, Method: PREINCUBATION): inactive; negative |
| Oc1ccc2sc3ccccc3c2c1 |  |  |  |  |  |  |  |  |  |  |  |  |  |  |  |  | mutagenic call (Test System: CHINESE HAMSTER OVARY, Strain/Indicator: CHO-K1-BH4 (HGPRT)/6-THIOGUANINE, Metabolic Activation: RAT, LIVER, S-9, AROCLOR (4%)): active; positive |

Reference: PubChem BioAssay AID1259407 (Chemical Carcinogenesis Research Information System (CCRIS), 2018)
